From patent publication US20240374626A1, “METHODS OF ENHANCING MILK PRODUCTION IN LACTATING MAMMALIAN SUBJECTS” (priority 2023, published 2024)

System: Csn2
Test: Contralateral intraductal injection: Csn2 expression in MGs by RT-qPCR
Type: in vivo, mouse
Experimental: Nulliparous analysis was performed using adult (10-12-week-old) female mice. For timed pregnancies and lactation analysis, CD-1 pregnant adult females were obtained from Charles Rivers. Embryos were examined at the time of mammary gland harvesting to confirm pregnancy state. […] Plugged mice were considered to be PD0.5 on the day of the observed plug. All females used in this study were age matched.
Mice were anesthetized with isoflurane (VetOne, 501017) Prior to intraductal injections, hair was removed from around the nipples using Nair hair remover. Injections into the duct of the nipple were performed with 33 G needles (Hamilton, 7803-05) and a volume of 40 μl per gland. Right inguinal, abdominal and thoracic glands were injected with doxorubicin (1.5 μg per gland, Cayman Chemical, 15007), nucleosides (40 μl per gland, Millipore-Sigma, ES-008-D) or Mk-1775 (50 μg per gland, Cayman Chemical, 21266), and left glands were injected with PBS or DMSO (Thermo Scientific, BP231) diluted in PBS.
For RNA isolation from FACS purified populations, mammary gland cell suspensions were blocked using Mouse BD Fc Block™ (BD Biosciences) for 10 min. Cells were subsequently resuspended on 1×PBS at a density of 10^7 cells/ml and stained with the following antibodies for 30 min on ice: anti-CD24 PE (Stem Cell Technologies, 60099PE.1), anti-CD29 PE-Cy7 (BioLegend, 102222), anti-CD45-APC (BioLegend,105826), Ter119-APC (BD Biosciences, 561033), CD31-ACP (BD Biosciences, 551262). Propidium iodide at a final concentration of 0.5 μg/ml was used for the discrimination of dead cells. Stromal, basal and luminal mammary populations were sorted using a BD FACS Aria II Cell Sorter. […] Total RNA quality was analyzed by agarose gel electrophoresis and quantified using an ND-1000 spectrophotometer (NanoDrop). cDNA was prepared from 500-1000 ng of total RNA using iScript cDNA synthesis kit (Bio-Rad, 1708841). Quantitative RT-qPCR was performed in triplicates using SsoAdvanced Universal SYBR Green Supermix, (Bio-Rad, 1725272). […]

Row | SMILES | milk production as Csn2 expression, RT-qPCR (doxorubicin IDI at PD12.5 vs contralateral DMSO, PD17.5 MGs) | Csn2 expression, RT-qPCR (Mk-1775 IDI at PD16.5 vs contralateral DMSO, LD2 or LD5 MGs)
1 | COc1cccc2c1C(=O)c1c(O)c3c(c(O)c1C2=O)C[C@@](O)(C(=O)CO)C[C@@H]3O[C@H]1C[C@H](N)[C@H](O)[C@H](C)O1 [doxorubicin] | increase | –
2 | C=CCn1c(=O)c2cnc(Nc3ccc(N4CCN(C)CC4)cc3)nc2n1-c1cccc(C(C)(C)O)n1 [Mk-1775] | – | decrease
